What all share (type): cell-based
The target in assay [1] is T1, JNK1 (Homo sapiens, UniProt P45983).
T1 construct: A549 lung adenocarcinoma cells were purchased from ATCC and cultured in RPMI1640 Medium; endogenous in cells; host or cells: A549
Kind of assay: Cellular assay of JNK degradation (A549 cells, Western blot), JNK1. As to conditions: for JNK1 degradation range: PROTAC concentration 1 μM, relative to DMSO control; for DC50: read-out: JNK1 DC50 range. How it is done: (§1) Protocol of the cellular assay of JNK degradation (A549 cells, Western blot). A549 lung adenocarcinoma cells were purchased from ATCC and cultured in RPMI1640 Medium (Gibco) supplemented with 10% Fetal Bovine Serum (Gibco). […] Cells were stimulated with PMA (Phorbol 12-myristate 13-acetate, Sigma) for 1 hour before harvesting. Cells were lysed in Cell Signaling lysis buffer supplemented with protease inhibitors (Thermo). The lysates were centrifuged at 20,000×g for 15 minutes to clarify, and protein concentration was determined by BCA (Pierce). Equal amounts of protein (5 micrograms) were separated by SDS-PAGE and transferred onto nitrocellulose membranes. The mermbranes were probed with antibodies against SAPK/JNK (Cell Signaling #9252), phospho-c-Jun (Cell Signaling #3270), MDM2 (Sigma M4308) and p53 (Cell Signaling #2527). HRP-conjugated anti-rabbit and anti-mouse secondary antibodies were from Cell Signaling. The bands were visualized with SuperSignal West Femto Substrate (Thermo). Quantitation was done using Image Lab Software v5.2.1.

The target of assay [2] is T2, JNK2 (Homo sapiens, UniProt P45984).
T2 construct: A549 lung adenocarcinoma cells were purchased from ATCC and cultured in RPMI1640 Medium; endogenous in cells; host or cells: A549
T2 sequence (P45984 whole entry): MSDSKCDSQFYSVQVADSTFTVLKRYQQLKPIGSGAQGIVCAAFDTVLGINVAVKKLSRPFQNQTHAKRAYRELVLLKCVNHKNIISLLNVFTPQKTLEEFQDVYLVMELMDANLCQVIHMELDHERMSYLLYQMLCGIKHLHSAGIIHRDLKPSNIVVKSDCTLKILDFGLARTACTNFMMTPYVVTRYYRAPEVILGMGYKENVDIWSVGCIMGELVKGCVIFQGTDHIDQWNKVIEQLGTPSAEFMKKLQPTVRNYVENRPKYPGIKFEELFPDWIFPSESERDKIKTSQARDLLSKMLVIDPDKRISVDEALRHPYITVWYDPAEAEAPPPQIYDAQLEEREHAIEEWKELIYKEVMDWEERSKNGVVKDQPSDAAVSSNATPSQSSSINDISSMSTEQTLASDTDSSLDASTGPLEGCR
Put plainly: Cellular assay of JNK degradation (A549 cells, Western blot), JNK2. As to conditions: for JNK2 degradation range: PROTAC concentration 1 μM, relative to DMSO control; for DC50: read-out: JNK2 DC50 range. The protocol:
as §1
A general note: A western blot detects proteins with antibodies after separation by electrophoresis.

Assay [3] concerns the target T3, Androgen receptor (AR) (Homo sapiens, UniProt P10275).
T3 construct: endogenous in cells; host or cells: VCaP
T3 sequence (P10275 1-920): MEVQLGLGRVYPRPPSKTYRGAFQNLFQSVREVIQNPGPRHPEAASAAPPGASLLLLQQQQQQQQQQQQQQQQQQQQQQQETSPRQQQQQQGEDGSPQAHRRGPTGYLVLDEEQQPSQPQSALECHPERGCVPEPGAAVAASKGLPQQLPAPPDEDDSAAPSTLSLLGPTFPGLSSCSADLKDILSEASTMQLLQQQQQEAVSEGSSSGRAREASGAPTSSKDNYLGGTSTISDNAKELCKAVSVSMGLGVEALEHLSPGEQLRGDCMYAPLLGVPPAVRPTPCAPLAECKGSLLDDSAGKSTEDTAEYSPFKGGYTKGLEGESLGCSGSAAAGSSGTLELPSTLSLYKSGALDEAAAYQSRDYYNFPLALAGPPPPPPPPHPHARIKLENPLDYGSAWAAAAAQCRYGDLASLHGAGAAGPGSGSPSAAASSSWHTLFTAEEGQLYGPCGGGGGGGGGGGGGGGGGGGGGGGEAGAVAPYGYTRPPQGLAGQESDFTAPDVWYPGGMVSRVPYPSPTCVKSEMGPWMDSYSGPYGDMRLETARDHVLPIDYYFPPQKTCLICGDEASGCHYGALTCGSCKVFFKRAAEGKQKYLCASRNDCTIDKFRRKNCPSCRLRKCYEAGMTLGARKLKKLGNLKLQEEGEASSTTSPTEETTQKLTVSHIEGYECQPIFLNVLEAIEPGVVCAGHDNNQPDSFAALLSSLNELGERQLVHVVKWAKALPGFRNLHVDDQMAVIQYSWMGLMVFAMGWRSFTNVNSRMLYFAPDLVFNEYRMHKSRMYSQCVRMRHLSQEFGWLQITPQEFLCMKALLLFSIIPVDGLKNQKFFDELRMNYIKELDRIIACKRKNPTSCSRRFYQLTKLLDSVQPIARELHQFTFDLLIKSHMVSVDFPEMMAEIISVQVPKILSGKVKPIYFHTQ
Put plainly: Cellular assay of androgen receptor (AR) degradation (VCaP cells, ELISA). As to conditions: for Dmax at 1 µM: 4 h, androgen receptor, VCaP cells, PROTAC concentration 1 μM, relative to DMSO control, read-out: Target protein degradation range; for Androgen receptor (AR) degradation in VCaP cells: @ 1 μM. How it is done: Protocol of the Cellular Assay of Androgen Receptor (AR) Degradation (VCaP Cells, ELISA).
For detection Cell Signaling PathScan Sandwich Elisa Catalog #12850 Lot 11 was used. VCaP cells were cultured in ATCC DMEM+ATCC FBS and plated 40,000/well 100 μl/well in RPMI P/S with 5% CSS Omega (bovine) serum into a 96 well plate. The cells were grown for a minimum of 3 days, dosed with compounds in 0.1% DMSO (diluted with 5% CSS) and incubated with aspiration for 4 hours. 100 μl of 1× Cell Signaling lysis buffer #9803 (36 ml dH2O+4 ml Cell Signaling lysis buffer) was added. The incubation was placed on cold room shaker for 10 min at speed 8-9. 5 μl to 100 μl of Diluent was transferred to Elisa plate (0.15 ug/ml-0.075 ug/ml) and stored at 4 C overnight on cold room shaker speed 5 (gentle swirl) and then shaken next morning at 37° C. for 30 min. The preparation was washed 4×200 μl with Elisa wash buffer and aspirated with eight-channel aspirator. 100 μl/well of AR detection Ab was added after which the preparation was covered and shaken at 37° C. for 1 hr. 100 ul TMB was added, and the mixture was shaken for 5 min while under observation. When TMB turned light blue, 100 ul of Stop solution was added, and the mixture was shaken and read at 450 nm. Also read at 562 for background subtraction.
In general terms: An ELISA detects its analyte on a solid surface through an enzyme-linked reagent.

What is called DC50 is the concentration at which degradation of the target reaches its halfway point.

T1 sequence (P45983 whole entry): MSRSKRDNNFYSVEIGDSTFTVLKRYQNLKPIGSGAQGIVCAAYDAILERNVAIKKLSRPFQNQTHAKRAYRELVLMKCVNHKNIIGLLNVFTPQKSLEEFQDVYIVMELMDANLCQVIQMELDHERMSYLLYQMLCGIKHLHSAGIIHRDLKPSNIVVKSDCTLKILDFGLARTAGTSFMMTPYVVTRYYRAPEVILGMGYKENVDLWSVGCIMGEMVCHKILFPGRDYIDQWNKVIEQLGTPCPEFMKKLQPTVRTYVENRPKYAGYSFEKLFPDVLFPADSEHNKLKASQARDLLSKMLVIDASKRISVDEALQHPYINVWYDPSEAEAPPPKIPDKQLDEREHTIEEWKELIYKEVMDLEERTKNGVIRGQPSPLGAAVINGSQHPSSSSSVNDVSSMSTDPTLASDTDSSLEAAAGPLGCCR

With `CN[C@@H](C)C(=O)N[C@H](C(=O)N1CC[C@@H]2CCN(CCc3ccc(OCCOCCOC4CCC(Nc5nccc(-c6cnn(Cc7ccccc7)c6N(C)C)n5)CC4)cc3)C[C@@H]21)C1CCCCC1` (mixture of isomers) [Example 17, (2S)—N-[(1S)-1-cyclohexyl-2-oxo-2-[6-(2-[4-[2-(2-[[(1r,4r)-4-([4-[1-benzyl-5-(dimethylamino)-1H-pyrazol-4-yl]pyrimidin-2-yl]amino)cyclohexyl]oxy]ethoxy)ethoxy]phenyl]ethyl)-octahydro-1H-pyrrolo[2,3-c]pyridin-1-yl]ethyl]-2-(methylamino)propanamide], in assay [1], the JNK1 degradation range entry was “A (degradation more than 60%)” and the half-maximal degradation concentration (DC50) was in the range of 100 to 1000 nM. For the same molecule, in assay [2], the JNK2 degradation range entry is reported as “A (degradation more than 60%)” and the DC50 lay in the range of 100 to 1000 nM. In the case of `CN[C@@H](C)C(=O)N[C@H](C(=O)N1CC[C@@H]2CCN(CCc3ccc(OCCOCCOCCOC4CCC(Nc5nccc(-c6cnn(Cc7ccccc7)c6N(C)C)n5)CC4)cc3)C[C@@H]21)C1CCCCC1` (mixture of isomers) [Example 18, (2S)—N-[(1S)-1-cyclohexyl-2-oxo-2-[6-[2-(4-[2-[2-(2-[[(1r,4r)-4-([4-[1-benzyl-5-(dimethylamino)-1H-pyrazol-4-yl]pyrimidin-2-yl]amino)cyclohexyl]oxy]ethoxy)-ethoxy]ethoxy]phenyl)ethyl]-octahydro-1H-pyrrolo[2,3-c]pyridin-1-yl]ethyl]-2-(methylamino)propanamide], in assay [1], the JNK1 degradation range result was “A (degradation more than 60%)” and the DC50 lay within 1 to 100 nM. Also, in assay [2], the JNK2 degradation range result is recorded as “A (degradation more than 60%)” and the 50% degradation concentration (DC50) was 100 to 1000 nM. Turning to `CN[C@@H](C)C(=O)N[C@H](C(=O)N1CCC[C@H]1C(=O)N[C@H]1c2ccccc2C[C@H]1OCCOCCOc1ccc(N2C(=S)N(c3ccc(C#N)c(C(F)(F)F)c3)C(=O)C2(C)C)cc1)C(C)(C)C` [Example 35, (S)—N-((1S,2R)-2-(2-(2-(4-(3-(4-cyano-3-(trifluoromethyl)-phenyl)-5,5-dimethyl-4-oxo-2-thioxoimidazolidin-1-yl)phenoxy)ethoxy)ethoxy)-2,3-dihydro-1H-inden-1-yl)-1-((S)-3,3-dimethyl-2-((S)-2-(methylamino)propanamido)-butanoyl)pyrrolidine-2-carboxamide], in assay [3], the Dmax at 1 µM lay within 0 to 30%.

Consider `CN[C@@H](C)C(=O)N[C@H](C(=O)N1CCC[C@H]1C(=O)N[C@H]1c2ccccc2C[C@H]1OCCOCCOCCOc1ccc(N2C(=S)N(c3ccc(C#N)c(C(F)(F)F)c3)C(=O)C2(C)C)cc1)C(C)(C)C` [Example 36, (2S)—N-[2-(2-[2-[2-(4-[3-[4-cyano-3-(trifluoromethyl)phenyl]-5,5-dimethyl-4-oxo-2-sulfanylideneimidazolidin-1-yl]phenoxy)ethoxy]ethoxy]ethoxy)-2,3-dihydro-1H-inden-1-yl]-1-[(2S)-3,3-dimethyl-2-[(2S)-2-(methylamino)propanamido]-butanoyl]pyrrolidine-2-carboxamide], for which the Dmax at 1 µM in assay [3] fell in the range of 0 to 30%. For `CN[C@@H](C)C(=O)N[C@H](C(=O)N1CCC[C@H]1C(=O)N[C@H]1c2ccccc2C[C@H]1OCCOCCOCCOCCOc1ccc(N2C(=S)N(c3ccc(C#N)c(C(F)(F)F)c3)C(=O)C2(C)C)cc1)C(C)(C)C` [Example 37], in assay [3], the Dmax at 1 µM is 0 to 30%. On the same count and under the same terms, to `CN[C@@H](C)C(=O)N[C@H](C(=O)N1CCC[C@H]1C(=O)N[C@H]1c2ccccc2C[C@H]1OCCOCCOc1ccc(C(=O)N[C@H]2C(C)(C)[C@H](Oc3ccc(C#N)c(Cl)c3)C2(C)C)cc1)C(C)(C)C` [Example 38, 1-[3,3-dimethyl-2-[(2S)-2-(methylamino)propanamido]-butanoyl]-N-[(1S,2R)-2-[2-[2-(4-[[(1r,3r)-3-(3-chloro-4-cyanophenoxy)-2,2,4,4-tetramethylcyclobutyl]carbamoyl]phenoxy)ethoxy]ethoxy]-2,3-dihydro-1H-inden-1-yl]pyrrolidine-2-carboxamide] belongs 0 to 30%. Consider `CN[C@@H](C)C(=O)N[C@H](C(=O)N1CCC[C@H]1C(=O)N[C@H]1c2ccccc2C[C@H]1OCCOCCOc1ccc(N2C(=S)N(c3ccc(C#N)c(C(F)(F)F)c3)C(=O)C2(C)C)cc1)C(C)(C)C` [drawing 254, (2S)—N-[(1S,2R)-2-{2-[2-(4-{3-[4-cyano-3-(trifluoromethyl)phenyl]-5,5-dimethyl-4-oxo-2-sulfanylideneimidazolidin-1-yl}phenoxy)ethoxy]ethoxy}-2,3-dihydro-1H-inden-1-yl]-1-[(2S)-3,3-dimethyl-2-[(2S)-2-(methylamino)propanamido]butanoyl]pyrrolidine-2-carboxamide], for which the “Androgen receptor (AR) degradation in VCaP cells” value (shortened to “Androgen receptor”) in assay [3] stood at 29%. For `CN[C@@H](C)C(=O)N[C@H](C(=O)N1CCC[C@H]1C(=O)N[C@H]1c2ccccc2C[C@H]1OCCOCCOCCOc1ccc(N2C(=S)N(c3ccc(C#N)c(C(F)(F)F)c3)C(=O)C2(C)C)cc1)C(C)(C)C` [drawing 255, (2S)—N-[(1S,2R)-2-(2-{2-[2-(4-{3-[4-cyano-3-(trifluoromethyl)phenyl]-5,5-dimethyl-4-oxo-2-sulfanylideneimidazolidin-1-yl}phenoxy)ethoxy]ethoxy}ethoxy)-2,3-dihydro-1H-inden-1-yl]-1-[(2 S)-3,3-dimethyl-2-[(2S)-2-(methylamino)propanamido]butanoyl]pyrrolidine-2-carboxamide], in assay [3], the “Androgen receptor” value is 9%.

In the case of `CN[C@@H](C)C(=O)N[C@H](C(=O)N1CCC[C@H]1C(=O)N[C@H]1c2ccccc2C[C@H]1OCCOCCOCCOCCOc1ccc(N2C(=S)N(c3ccc(C#N)c(C(F)(F)F)c3)C(=O)C2(C)C)cc1)C(C)(C)C` [drawing 256, (2S)—N-[(1S,2R)-2-{[1-(4-{3-[4-cyano-3-(trifluoromethyl)phenyl]-5,5-dimethyl-4-oxo-2-sulfanylideneimidazolidin-1-yl}phenyl)-1,4,7,10-tetraoxadodecan-12-yl]oxy}-2,3-dihydro-1H-inden-1-yl]-1-[(2S)-3,3-dimethyl-2-[(2S)-2-(methylamino)propanamido]butanoyl]pyrrolidine-2-carboxamide], in assay [3], the “Androgen receptor” value is listed as 9%.

The values are drawn from patent publication US20220162163A1, “ALANINE-BASED MODULATORS OF PROTEOLYSIS AND ASSOCIATED METHODS OF USE” (Arvinas Operations, Inc., priority 2015, published 2022).
